The values below come from patent US12589025B2, “Intraocular devices, systems, and methods” (Sight Sciences, Inc., priority 2021, dated 2026).

Details of the data set: species or system Yucatan pigs. Particulars: pig, in vivo. The source says:
Poly(lactic-co-glycolic acid) (PLGA) implants comprising bimatoprost were implanted into the eyes of 3 month old Yucatan pigs (6 pigs total). Prior to delivering the implant to either the sclera (fully intrascleral; “intrascleral arm”) or partially in the limbus (one end residing in the limbus, one end residing in the sclera; “limbal arm”), the pigs were placed under general anesthesia, and a lid speculum was inserted. Intraocular pressure was checked, and corneal thickness was checked in 4 quadrants, and centrally, using ultrasonic corneal pachymetry. The lid speculum was then removed.
In each of the 6 pigs, the right eye received one implant, and the left eye received 2 implants. In order to accomplish this, betadine drops were placed onto the left eyes of each pig and an eyelid speculum is inserted. A surgical operating microscope was positioned to visualize the implantation. Each eye was infraducted with a traction suture. A small conjunctival peritomy was created, and the sclera was marked with gentian violet-tipped calipers 2 mm posterior to the limbus. 10-0 nylon marking sutures were then placed 3-4 mm posterior to the limbus. A 27 G needle on a TB syringe was used to preform a tunnel for implantation toward the anterior chamber (group 1) or across the sclera (group 2). The implant was then deployed into the preformed tunnel, and the traction suture was released. Polymyxin-trimethoprim and tobramycin-dexamethasone drops were then placed in each eye, and the speculum was removed. The procedure was then repeated with two implants in each pig's […] eye.
At month 1, the pigs were examined, and one pig from each group was euthanized and the eyes were removed and placed in formalin for pathology. Aqueous samples from each of the 6 pigs were collected and analyzed for the presence of bimatoprost and Bimatoprost Acid (a metabolite of bimatoprost). At weeks 3, 10, and 20, the remaining pigs in each group were examined for redness, inflammation, eye rubbing, miosis, and squinting, as above.
At month 3, the remaining pigs were examined and aqueous samples collected (as above), and one of the remaining pigs from each group was euthanized (as above) for pathology.
The histopathology of the eyes is evaluated, as is the concentration of bimatoprost, and metabolites thereof, in the anterior chambers. The concentrations of bimatoprost and the bimatoprost acid metabolite in the anterior chamber of each pig's eyes are shown in FIGS. 24A-24D, at the time points described above. FIG. 24A and FIG. 24B show the concentrations of bimatoprost and the bimatoprost acid metabolite, respectively, for the three pigs (A1, A2, and A6) implanted with the intrascleral implant. […]

`O=C(O)CCC/C=C\C[C@@H]1[C@@H](/C=C/[C@@H](O)CCc2ccccc2)[C@H](O)C[C@@H]1O` [Bimatoprost Acid]: the “Bimatoprost Acid concentration, limbal arm compared to intrascleral arm” value is reported as “higher concentration in the limbal arm” and the “presence of Bimatoprost Acid (metabolite of bimatoprost) in aqueous samples” value is recorded as “detectable”.
`CCNC(=O)CCC/C=C\C[C@@H]1[C@@H](/C=C/[C@@H](O)CCc2ccccc2)[C@H](O)C[C@@H]1O` [bimatoprost]: the “bimatoprost aqueous levels, limbal arm compared to intrascleral arm” value is “both higher and more sustained aqueous levels in the limbal arm”; the “presence of bimatoprost in the aqueous humor” value was “detectable”.
